Patent publication US20140001056A1 (priority 2011, published 2014)
“And” between values parts separate entries of the source, which are not always exact repeats. Equal entries are not always repeated. Where two headings read alike, the source gives them in different places.

Legend:
α-HL heptamer = α-HL heptamer (Staphylococcus aureus, UniProt P09616)
α-HL monomer = α-HL monomer (Staphylococcus aureus, UniProt P09616)
WT-Kcv = WT-Kcv (Paramecium bursaria Chlorella virus 1, UniProt Q84568)
WT-α-HL pore [1] = target: T1, WT-α-HL pore (Staphylococcus aureus, UniProt P09616); type: binding
MspA (NNNRRK mutant) = MspA (NNNRRK mutant) (Mycolicibacterium smegmatis, UniProt A0QR29, D117N/D118N/D120N/D145R/D161R/E166K)
WT-α-HL pore [2] = target: T1, WT-α-HL pore; settings: cited from earlier work

Chain of WT-Kcv (Q84568 whole entry, looked up): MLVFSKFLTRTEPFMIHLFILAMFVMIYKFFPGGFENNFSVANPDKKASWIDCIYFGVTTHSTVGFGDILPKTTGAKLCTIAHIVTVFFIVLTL
Chain of α-HL heptamer (P09616 27-319 limits assumed): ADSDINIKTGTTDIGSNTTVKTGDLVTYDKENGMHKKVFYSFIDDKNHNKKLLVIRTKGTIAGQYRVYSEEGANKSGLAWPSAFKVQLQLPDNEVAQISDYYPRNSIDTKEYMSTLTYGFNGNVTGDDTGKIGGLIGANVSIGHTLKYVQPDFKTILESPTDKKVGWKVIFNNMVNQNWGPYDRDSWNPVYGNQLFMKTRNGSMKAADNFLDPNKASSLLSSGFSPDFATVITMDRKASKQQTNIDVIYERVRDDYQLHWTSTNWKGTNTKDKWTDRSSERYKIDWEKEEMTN
T1 sequence (P09616 27-319 limits assumed): as above
Chain of α-HL monomer (P09616 27-319 limits assumed): as above
Chain of MspA (NNNRRK mutant) (A0QR29 28-211 D117N/D118N/D120N/D145R/D161R/E166K limits assumed): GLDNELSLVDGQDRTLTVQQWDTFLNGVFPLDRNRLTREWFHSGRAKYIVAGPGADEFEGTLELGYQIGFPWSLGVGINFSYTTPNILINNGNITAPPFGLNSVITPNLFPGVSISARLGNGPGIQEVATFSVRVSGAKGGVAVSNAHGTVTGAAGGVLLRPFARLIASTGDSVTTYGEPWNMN

## Fluorinated octyl maltoside [F6OM]
α-HL heptamer
  Initial rate of release of dye: 16 % min^−1
  Lag time before initiation of release: 1.8 min
α-HL monomer
  Initial rate of release of dye: 4 % min^−1
  Lag time before initiation of release: 4.4 min

## C6F13C2H4—S-poly[tris(hydroxymethyl)aminomethane] [F6TAC]
α-HL heptamer
  Initial rate of release of dye: 16 % min^−1
  Lag time before initiation of release: 4.8 min
α-HL monomer
  Initial rate of release of dye: 6.5 % min^−1
  Lag time before initiation of release: 7.5 min

## Fluorinated fos-choline [F6FC]
WT-Kcv
  blockades or gating changes of Kcv channels already inserted: did not cause blockades or changes in the gating
  insertion of Kcv channels into planar lipid bilayer: No openings are seen
  single-channel IV curve of Kcv: unchanged
WT-α-HL pore [1]; pH 7.5
  gα-HL, unitary conductance in the absence of βCD: 650 ± 3 pS and 721 ± 4 pS
α-HL heptamer
  Lag time before initiation of release: 2.8 min and 4.3 min
α-HL monomer
  Percent release of dye at end point: 0.2% and 0.3%
MspA (NNNRRK mutant)
  blockades or gating changes of MspA pores already inserted: did not cause blockades or changes in the gating
  insertion of MspA pores into planar lipid bilayer: No further insertion events occur

## β-cyclodextrin [βCD]
WT-α-HL pore [2]
  gα-HL·βCD, unitary conductance with βCD bound: 253 ± 4 pS and 240 ± 3 pS
  koff: 2.1 ± 0.2 × 10^3 s^−1 and 1.3 ± 0.1 × 10^3 s^−1
  kon: 2.8 ± 0.2 × 10^5 M^−1s^−1 and 4.0 ± 0.3 × 10^5 M^−1s^−1
WT-α-HL pore [1]
  Kd: 5.4 mM and 9.6 mM
  gα-HL·βCD, unitary conductance with βCD bound: 257 ± 3 pS and 232 ± 4 pS
  koff: 1.7 ± 0.1 × 10^3 s^−1 and 2.4 ± 0.3 × 10^3 s^−1
  kon: 3.1 ± 0.1 × 10^5 M^−1s^−1 and 2.5 ± 0.4 × 10^5 M^−1s^−1
